Patent publication US20050261282A1, “Treatment of basal ganglia-related movement disorders with 2,3-benzodiazepines” (Motac Neuroscience Limited Williams House, priority 2002, published 2005)
Structures can show the parent of a compound that is named as a salt.

Columns and labels:
[1] = cited from earlier work
MPTP-lesioned marmoset [2] = experiment: L-DOPA-induced dyskinesia score in the MPTP-lesioned marmoset model of Parkinson's disease; format: in vivo, Marmosets (Callithrix jacchus); details: Tofisopam 5-20 mg/kg oral with L-DOPA 15-17.5 mg/kg oral; dyskinesia score 0-4, every 30 minutes for 4 hours; FIGS. 4 and 5
Description: The effect of Tofisopam on L-DOPA-induced dyskinesia was assessed in the MPTP-lesioned marmoset model of Parkinson's disease. 1.1.1 Preparation of MPTP-lesioned marmoset model of Parkinson's disease Marmosets (Callithrix jacchus) (bred in a closed colony at the University of Manchester) were rendered parkinsonian by subcutaneous injection of 2 mg kgl MPTP for 5 consecutive days. The marmosets were allowed to recover for a minimum of 10 weeks until their parkinsonism became stable. The degree of activity and disability before and after MPTP treatment was assessed using a combination of scales as described in section 1.1.2. Animals were then treated with L-DOPA for at least 3 weeks to prime them to elicit dyskinesia. (c) Dyskinesia—non-parametric measures based on the following scale: Dyskinesia score: 0=Absent, 1=Mild, fleeting, 2=Moderate, not interfering with normal activity, 3=Marked, at times interfering with normal activity, 4=Severe, continuous, replacing normal activity. The behavioural tests were assessed every 30 minutes for 4 hours, by post hoc analysis of video-recordings by an observer blinded to the treatment. Marmosets received all treatments as described in Table 1. The treatments were randomised such that on each day all marmosets received one of the treatments. There was at least 48 hours washout between treatments. [table]

MPTP-lesioned marmoset [3] = experiment: Parkinsonian disability (mobility score) in the MPTP-lesioned marmoset model of Parkinson's disease; format: in vivo, Marmosets (Callithrix jacchus); details: Tofisopam 5-20 mg/kg oral with L-DOPA 15-17.5 mg/kg oral; mobility score 0-9, every 30 minutes for 4 hours; FIGS. 4 and 5
Description: The effect of Tofisopam on L-DOPA-induced dyskinesia was assessed in the MPTP-lesioned marmoset model of Parkinson's disease. 1.1.1 Preparation of MPTP-lesioned marmoset model of Parkinson's disease Marmosets (Callithrix jacchus) (bred in a closed colony at the University of Manchester) were rendered parkinsonian by subcutaneous injection of 2 mg kgl MPTP for 5 consecutive days. The marmosets were allowed to recover for a minimum of 10 weeks until their parkinsonism became stable. The degree of activity and disability before and after MPTP treatment was assessed using a combination of scales as described in section 1.1.2. Animals were then treated with L-DOPA for at least 3 weeks to prime them to elicit dyskinesia. […] The behavioural tests were assessed every 30 minutes for 4 hours, by post hoc analysis of video-recordings by an observer blinded to the treatment. […]

## CCN(CC)CCNC(=O)c1cc(Cl)c(N)cc1OC [Metoclopramide hydrochloride, 4-amino-5-chloro-N-[2-(diethylamino)ethyl]-2-methoxy benzamide monohydrochloride monohydrate]
[1]
  solubility in water: freely soluble in water

## CCC1C(C)=NN=C(c2ccc(OC)c(OC)c2)c2cc(OC)c(OC)cc21 (centres unmarked) [Tofisopam]
MPTP-lesioned marmoset [2]
  severity of L-DOPA-induced dyskinesia: reduces the severity of L-DOPA-induced dyskinesia
MPTP-lesioned marmoset [3]
  antiparkinsonian action of L-DOPA (parkinsonian disability): without affecting the antiparkinsonian action

## N[C@@H](Cc1ccc(O)c(O)c1)C(=O)O [levodopa, (−)-3-(3,4-dihydroxy-phenyl)-L-alanine]
[1]; alcohol
  solubility in alcohol: insoluble in alcohol
[1]
  solubility in water: slightly soluble in water
